According to PMC9321718 (Pharmaceuticals, 2022):
Converted amounts (≈) assume the structure as drawn. “And” between values parts separate entries of the source, which are not always exact repeats. Identical values can stand only once. Like-named read-outs stand apart in the source and are kept apart here.

Tests used:
B. subtilis (NCIB 8054) [1] = assay: Agar diffusion test, MIC; type: cell-based, Bacillus subtilis; details: B. subtilis; for MIC: agar diffusion test, LB pH 7.2, 37 °C, 20 h; for antibacterial activity of CD complex: up to 3–5 mg/mL concentration
Method: (§1) The strains used in this study were Escherichia coli (NCIB 12210) and Bacillus subtilis (NCIB 8054) from National Resource Center All-Russian collection of industrial microorganisms SIC “Kurchatov Institute”). The culture was cultivated for 18–20 h at 37 °C to CFU ≈ 5 × 10^6 – 8 × 10^6 (determined by A600) in liquid nutrient medium Luria–Bertani (pH 7.2): E. coli—without stirring, B. subtilis—with stirring 180 rpm.
(§2) The study of the antibacterial effect of Lev and adjuvants was carried out by (a) agar diffusion test and (b) broth micro-dilution method. (a) A measured 500 µL of 100-fold culture dilution was evenly distributed over a solid nutrient medium (LB, pH 7.2) on a Petri dish. After 20 min, agar disks with a diameter of 9 mm were removed from the cups and 50 µL of the test samples were placed in the formed wells at the required concentration in a sterile PBS buffer (see Section 3.3 (2)). After 30 min, Petri dishes were placed in a 37 °C thermostat. After 24 h, the diameters of the growth inhibition zones were measured. Minimum inhibitory concentrations (MICs) are determined as the infimum of multiple concentrations of an antimicrobial that inhibits the visible growth of a microorganism after overnight incubation. (b) According to the standard broth micro-dilution method, 200 µL of the overnight culture (5 × 10^6 CFU) was placed into a 96 micro-titer plate wells. Then 50 µL of tested samples was added. The range of tested Lev concentration was 4–200 ng/mL, adjuvants concentration was in the range of 0.008–2 mg/mL. Optical density measurements at 600 nm were taken at various times (0, 3, and 18 h) to determine the number of cells. The dependence of CFU (determined by A600) on the concentration of Lev, APAB or terpenoid (briefly X) was approximated according to the Boltzmann equation (Origin software): CFU = (control CFU)/(1 + exp(([X] − MIC50)/constant value)). MIC50 and MIC90 are defined as concentrations at which the inhibition of bacterial growth by 50 and 90% is noticeable, respectively. In other words, the concentration at which the ordinate value (CFU) is equal to 50 or 10% of the control sample minus the background.

[2] = HPCD, cited from earlier work
E. coli (NCIB 12210) [3] = assay: Agar diffusion test, MIC; type: cell-based, Escherichia coli; details: for MIC: LB pH 7.2, 37 °C, 20 h; for antibacterial activity of CD complex: up to 3–5 mg/mL concentration
Method: as §1, §2

B. subtilis (NCIB 8054) [4] = assay: Broth micro-dilution method, MIC50/MIC90; type: cell-based; details: Bacillus subtilis, NCIB8054
Method: as §1
The study of the antibacterial effect of Lev and adjuvants was carried out by (a) agar diffusion test and (b) broth micro-dilution method. (a) A measured 500 µL of 100-fold culture dilution was evenly distributed over a solid nutrient medium (LB, pH 7.2) on a Petri dish. […] After 24 h, the diameters of the growth inhibition zones were measured. Minimum inhibitory concentrations (MICs) are determined as the infimum of multiple concentrations of an antimicrobial that inhibits the visible growth of a microorganism after overnight incubation. […] The dependence of CFU (determined by A600) on the concentration of Lev, APAB or terpenoid (briefly X) was approximated according to the Boltzmann equation (Origin software): CFU = (control CFU)/(1 + exp(([X] − MIC50)/constant value)). […]

E. coli (NCIB 12210) [5] = assay: Broth micro-dilution method, MIC50/MIC90; type: cell-based, Escherichia coli
Method: as §1
as §2, with “In other words, the concentration at which the ordinate value (CFU) is equal to 50 or 10% of the control sample minus the background.” left out

[6] = MCD, cited from earlier work; for EE, %: C(MCD) = 0.01 M
[7] = Formation of inclusion complexes with MCD (UV spectroscopy, Hill linearization); type: physicochemical; details: for EE, % / LC, % / n: MCD; for EE, % / LC, %: C(MCD) = 0.01 M, pH 6.2, 22 °C; for n: Xaq + n MCDaq ⇌ X·nMCDaq, 5 mM sodium phosphate buffer pH 6.2, 22 °C
Method: To optimize the system composition, similar experiments were carried out on the formation of EG and apiol inclusion complexes with HPCD (Figure S1). […] According to these changes, the dissociation constants of the EG–HPCD and apiol–HPCD complexes (Figure S2) were calculated by Hill’s equation (Table 1). […] The physicochemical parameters of the interaction of APAB and terpenoids (X) with CD were studied by determining the concentration of substances in the aqueous fraction ([APAB] + [APAB-MCD]) according to the calibration dependence (Figure 1C) for systems with a constant amount of the essential oil component X and the concentration gradient MCD (Table 1). Theta (θ) is a fraction of the bound substance X:θ = [X-MCD]/([X-MCD] + [X]) and was calculated based on the dependence of the absorption intensity X on the MCD concentration in the system in the form of a sigmoidal Hill curve with subsequent linearization (Section 3, Section 3.3 and Section 3.4).
The molar excess of CD varied from 0.04 to 10). Further, the complexes were incubated for 1 h at 37 °C and then centrifuged ([…], 15 min, Eppendorf tubes) to separate the insoluble fractions. Complexes were studied by UV and FTIR spectroscopy.
UV spectra of solutions (point 3.3.1) were recorded on the AmerSham Biosciences UltraSpec 2100 pro device (USA) three times in the range of 200–400 nm in a quartz cell Hellma 100–QS with an optical path of 1 cm. Background spectrum (5 mM sodium phosphate buffer (pH 6.2) with 50% EtOH) was subtracted as a blank.
(1) Calculation of the dissociation constants X–MCD and X–HPCD, where X is a “guest” compound, considering the equilibrium: Xaq + n MCDaq ↔ X·nMCDaq, where Kd = [MCDaq]^n · [Xaq]/[X·nMCDaq].
First, fitting of the curves of change of the analytical signal ξ (peak intensity or peak position) versus concentration of the MCD or HPCD or was carried out using the Hill equations: (1) ξ = ξ∞ · [MCD]^n/([MCD]^n + K^n), where ξ∞—horizontal asymptote; (2) ξ = ξ0 + (ξ∞–ξ0) · [MCD]^n/([MCD]^n + K^n). Second, calculation n and Kd values by Hill’s linearization in n-binding site model: lg (θ/(1 – θ)) = n · lg [L] – lg Kd, where θ = |(ξ – ξ0)/(ξ∞ − ξ0)|is a fraction of the bound substance. N in Hill equation—number of drug molecules per CD torus.
Calculations for the following items are performed when [MCD] = 0.01 M.

physchem = details: 22 °C, pH 6.2, water
Method: (§3) (3) Solubility of X in water C0 = [Xaq] = A/(ε · l) was determined by UV absorbance after centrifugation of samples (10 min, 10,000× g). l = 1 cm. ε—molar absorbance coefficient (Figure 1C).

E. coli = assay: Synergy of adjuvant-MCD with Lev-MCD, growth inhibition zones in agar; type: cell-based, Escherichia coli; details: E. coli; for D, diameter of bacterial inhibition zone surrounding Lev–MCD with APAB-MCD / ϕLev = (D/DLev)^2 / FICI: CLev 0.1 μg/mL; for D, diameter of bacterial inhibition zone surrounding Lev–MCD with APAB-MCD: Lev-MCD + X-MCD (1:2), ±0.5; for ϕLev = (D/DLev)^2: ±0.1; for FICI: ±15%
Method: We obtained complex formulations containing adjuvants-MCD and Lev-MCD. These complexes were referred to as enhanced Lev. The synergy effect was studied at a constant concentration of Lev and a variable concentration of an enhancer. […] Based on the D/DLev ratio, the effectiveness of cooperative antibacterial action (ϕ) of the adjuvant and Lev was calculated. The fractional inhibitory concentration (FIC) parameter was introduced: at a fixed Lev concentration, the FIC of adjuvant corresponds to the minimum fractional adjuvant concentration at which the antibacterial effect was still manifest (MICadjuvant in the presence of Lev). The fractional inhibitory concentration index (FICI) characterizes the ratio of the active Lev and adjuvant concentrations to the MIC values of these substances individually: FICI=[Lev]/MIC(Lev)[…][adjuvant]/MIC(adjuvant) (see Section 3).
The FICI was interpreted as: synergism (<0.35), additivity (0.35–0.75), indifference (0.75–1.4), or antagonism (>1.4). FICI is designed to determine the type of Lev interaction with adjuvants.
as §2, with “After 24 h, the diameters of the growth inhibition zones were measured.” left out, “Optical density measurements at 600 nm were taken at various times (0, 3, and 18 h) to determine the number of cells.” left out, “MIC50 and MIC90 are defined as concentrations at which the inhibition of bacterial growth by 50 and 90% is noticeable, respectively.” left out
The FICI was interpreted as: synergism (<0.35), additivity (0.35–0.75), indifference (0.76–1.4), or antagonism (>1.4). The essence of this expression is to calculate the average change in the effective concentration compared to MIC. Note that the most important parameter corresponds to a decrease in MIC of Lev. However, FICI is designed to determine the type of interaction Lev with adjuvants.

[8] = Solubility of X in water and in the presence of MCD/HPCD (UV absorbance); details: 22 °C, pH 6.2, water
Method: as §3

[9] = Escherichia coli, NCIB12210, broth micro-dilution

| SMILES | EE, % [7] | LC, % [7] | n [7] | solubility (physchem) | decrease of MICLev in the presence of adjuvant (E. coli) | D, diameter of bacterial inhibition zone surrounding Lev–MCD with APAB-MCD (E. coli) | ϕLev = (D/DLev)^2 (E. coli) | FICI (E. coli) | antibacterial activity of CD complex (B. subtilis (NCIB 8054) [1]) | antibacterial activity of CD complex (E. coli (NCIB 12210) [3]) | other results |
| --- | --- | --- | --- | --- | --- | --- | --- | --- | --- | --- | --- |
| C[C@H]1COc2c(N3CCN(C)CC3)c(F)cc3c(=O)c(C(=O)O)cn1c23 [Levofloxacin] |  |  |  |  |  |  |  |  |  |  | MIC (B. subtilis (NCIB 8054) [1]; listed as Lev): 0.45 ± 0.05 µg/mL (≈ 1.25 µM); MIC (B. subtilis (NCIB 8054) [1]; Bacillus subtilis, NCIB8054, read-out: MIC): 0.45 µg/mL (≈ 1.25 µM); EE, % ([2]; 0.01 M): 91 ± 15%; LC, % [2]: 24.1 ± 0.5%; MIC (E. coli (NCIB 12210) [3]; Escherichia coli, NCIB12210, agar diffusion test, read-out: MIC): 0.1 µg/mL (≈ 0.277 µM); MIC (E. coli (NCIB 12210) [3]; agar diffusion test, listed as Lev): 0.10 µg/mL and 0.10 ± 0.01 µg/mL; MIC50 (B. subtilis (NCIB 8054) [4]): 0.03 ± 0.01 µg/mL (≈ 0.083 µM); MIC90 (B. subtilis (NCIB 8054) [4]): 0.08 ± 0.02 µg/mL (≈ 0.221 µM); MIC50 (E. coli (NCIB 12210) [5]; [9]): 0.01 ± 0.002 µg/mL (≈ 0.0277 µM); MIC90 (E. coli (NCIB 12210) [5]; [9]): 0.025 ± 0.004 µg/mL (≈ 0.0692 µM); improvement of the effect of Lev by MCD (E. coli (NCIB 12210) [5]; broth micro-dilution test): 30%; EE, % [6]: 99 ± 12%; EE, % ([6]; listed as Lev): more than 90%; LC, % [6]: 28.3 ± 0.4% |
| C=CCc1cc2c(c(OC)c1OC)OCO2 [Dillapiol] | 56 ± 10% | 13 ± 1% | 1.3 ± 0.2 | 240 ± 50 µM (≈ 53.3 µg/mL) | 1.25–1.5 times | 13.75 mm | 1.3 | 0.04 |  |  |  |
| C=CC(C)(O)CCC=C(C)C (centres unmarked) [Linalool] | 80 ± 7% | 10 ± 1% | 1.2 ± 0.2 | 300 ± 50 µM (≈ 46.3 µg/mL) |  |  |  |  | inactive | inactive |  |
| C=CCc1cc(OC)c(OC)c(OC)c1OC [Allyltetramethoxybenzene] | 45 ± 4% | 11 ± 1% | 1.74 ± 0.11 |  | 1.25–1.5 times | 12 mm | 1.1 | 0.50 | inactive | inactive | solubility [8]: 160 ± 20 µM |
| C=CCc1cc(OC)c2c(c1)OCO2 [Myristicin] | 99 ± 5% | 22 ± 2% | 0.67 ± 0.06 | 30 ± 7 µM (≈ 5.77 µg/mL) | 1.25–1.5 times | 13.25 mm | 1.2 | 0.04 | inactive | inactive | molar ratio APAB:CD of inclusion complexes [7]: 2 to 1; EE, % ([7]; listed as myristicin): more than 90% |
